From US8653274B2, “Compounds suitable as precursors to compounds that are useful for imaging amyloid deposits” (AstraZeneca AB, priority 2008, dated 2014)

Target: amyloid deposits (Homo sapiens, UniProt P05067)
Experiment: competition binding assay described in WO2007/086800
Details: unlabeled compound

Sequence of amyloid deposits (P05067 672-711 limits assumed): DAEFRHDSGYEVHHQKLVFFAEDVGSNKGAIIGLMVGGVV

CNc1ccc(-c2cc3cc(O)ccc3o2)c(F)n1 [2-(2-Fluoro-6-methylamino-pyridin-3-yl)-benzofuran-5-ol]
IC50: 13 nM
